Source: patent publication US20220177476A1, “Crystal Forms of (S)-4-(8-amino-3-(1-(but-2-ynoyl)-pyrrolidin-2-yl)imidazo[1,5-a]pyrazin-1-yl)-n-(pyridin-2-yl)benzamide” (Acerta Pharma B.V., priority 2015, published 2022)
Values after ≈ are worked out from the molar mass of the structure shown.

How the values were obtained:
[1] = Dynamic vapor sorption (DVS); type: physicochemical; settings: DVS
Experimental: A gravimetric vapor sorption study was run using a standard procedure. Samples were run using a dynamic vapor sorption (DVS) analyzer. Sample sizes were approximately 10 mg. A moisture adsorption-desorption isotherm was performed as outlined below.

[2] = Intrinsic dissolution rate (paddle over stationary disc); type: physicochemical
Experimental: The intrinsic dissolution rate (IDR) was measured for Forms I and II of the free base of Formula (1). IDR was measured using a paddle over stationary disc equipped dissolution apparatus with concentration determined using liquid chromatographic analysis against a standard. […] Form I has an IDR of 6.8 mg/cm^2/min in simulated gastric fluid (SGF) (pH 1.2) and an IDR of 0.44 mg/cm^2/min in pH 2.5 HCl/NaCl buffer. Form II has an IDR of 5.4 mg/cm^2/min in SGF and an IDR of 0.35 mg/cm^2/min in pH 2.5 HCl/NaCl buffer.

[3] = Plasma exposure after single oral administration in fasted beagle dogs; type: in vivo; settings: nine fasted beagle dogs, single oral administration of 6 mg/kg, oral capsule
Experimental: The plasma exposure of Forms I and II of the free base of Formula (1) were compared in nine fasted beagle dogs after a single oral administration of 6 mg/kg of either form using batches with a similar particle size distribution. The experiment was performed in 5 weekly phases, with the Form II phase last. […] There was a good in vitro in vivo correlation for the dissolution rates of Form 1 and Form II, and the performance of each form of Formula (1) when delivered by oral capsule to dogs.

[4] = Approximate solubility of Form I by stepwise dilution of a suspension; type: physicochemical; settings: thermodynamic from solid, read-out: Solubility [S, mg/mL]
Experimental: Form I was also tested with respect to solubilities in various water-solvent mixtures and non-aqueous solvents. Solubility studies were conducted by a stepwise dilution of a suspension of about 10 mg of Form I in 0.1 mL of analytical grade solvent. Solubility values are estimated approximations and are subject to variable experimental error.

[5] = Relative stability of solid forms (water activity, suspension equilibration, storage); type: physicochemical
Text: Critical water activity is a measure of the relative thermodynamic stability of Form I in comparison to the trihydrate Form II. […] Suspension equilibration experiments in ethanol-water mixtures, each having a different water activity, affirmed this conclusion. Water activities included in the experiments were maintained at: about 0.35 (ethanol-water ratio of 95:5, PP502-P32), about 0.53 (ethanol-water ratio of 9:1, PP502-P33) and about 0.77 (ethanol-water ratio of 7:3, PP502-P34).
Because the DVS results of Form II indicate reversible moisture sorption-desorption behavior (see above), tests were performed to confirm that storage of the dehydrated Form II sample (i.e., Form IV) at about 60% RH would again lead to the trihydrate form (Form II). […]

[6] = Solubility of Form I by HPLC in solvents and water-solvent mixtures; type: physicochemical; settings: for solubility: organic solvent or mixture, thermodynamic from solid, read-out: Solubility (S, mg/mL)
Experimental: The solubility of recrystallized Formula (1) Form I was tested in various water-solvent mixtures and non-aqueous solvents.

[7] = Human Phase 1 interaction study of calcium carbonate, omeprazole, or rifampin on Formula (1); type: in vivo; settings: healthy adult subjects, acid reducing agents prior to administration
[8] = Aqueous solubility after equilibrating at 25° C. for three days (HPLC); type: physicochemical; settings: water, 25° C., three days
Experimental: Finally, Form II was tested with respect to solubilities in various water-solvent mixtures and non-aqueous solvents. […] High-performance liquid chromatography (HPLC) was used to determine the concentration of Form II in the filtered solution at approximately 14 μg/mL, which translates into a critical water activity (aw) of about 0.59.

## CC#CC(=O)N1CCC[C@H]1c1nc(-c2ccc(C(=O)Nc3ccccn3)cc2)c2c(N)nccn12 [Form I, (S)-4-(8-amino-3-(1-(but-2-ynoyl)pyrrolidin-2-yl)imidazo[1,5-α]pyrazin-1-yl)-N-(pyridin-2-yl)benzamide]
[1]
  hygroscopicity (DVS), in words: not hygroscopic
  total weight gain observed between 0% RH and 80% RH: about 0.17%
  water content at 50% RH: approximately 0.25%
[1]; at 95% RH
  water absorption within the timeframe of the test: less than 0.3%
[1]; weight increase at 80% RH
  hygroscopicity according to the European Pharmacopoeia (EP) classification: non-hygroscopic (non-hygroscopic: <0.2%)
[1]; listed as recrystallized Formula (1)
  maximum water content (saturation) at about 95% RH: approximately 0.5%
[2]; at both conditions (SGF and pH 2.5 buffer)
  increase in IDR relative to Form II: ~26%
[2]; pH 2.5 HCl/NaCl buffer
  intrinsic dissolution rate (IDR): 0.44 mg/cm^2/min
[2]; simulated gastric fluid (SGF) (pH 1.2)
  intrinsic dissolution rate (IDR): 6.8 mg/cm^2/min
[3]
  exposure: higher exposure in the beagle than Form II
[4]; 2-propanol, organic solvent or mixture
  solubility: < 1 mg/mL
[4]; MEK saturated with water, organic solvent or mixture
  solubility: 26 to 30 mg/mL (≈ 55.9 to 64.4 mM)
[4]; THF:water 9:1, organic solvent or mixture
  solubility: > 50 mg/mL
[4]; acetic acid, organic solvent or mixture
  solubility: 102 to 204 mg/mL (≈ 219 to 438 mM)
[4]; acetic acid:MEK 1:9, organic solvent or mixture
  solubility: 63 to 95 mg/mL (≈ 135 to 204 mM)
[4]; acetic acid:ethyl acetate 1:1, organic solvent or mixture
  solubility: 92 to 184 mg/mL (≈ 198 to 395 mM)
[4]; acetic acid:ethyl acetate 1:9, organic solvent or mixture
  solubility: 60 to 90 mg/mL (≈ 129 to 193 mM)
[4]; acetic acid:isopropanol 1:9, organic solvent or mixture
  solubility: ~4 mg/mL (≈ 8.59 mM)
[4]; acetic acid:water 1:1, aqueous with cosolvent or surfactant or cyclodextrin
  solubility: 104 to 208 mg/mL (≈ 223 to 447 mM)
[4]; acetone, organic solvent or mixture
  solubility: ~2 mg/mL (≈ 4.3 mM)
[4]; acetone:water 4:1, organic solvent or mixture
  solubility: 26 to 31 mg/mL (≈ 55.9 to 66.6 mM)
[4]; acetonitrile, organic solvent or mixture
  solubility: < 1 mg/mL
[4]; ethanol, organic solvent or mixture
  solubility: ~3 mg/mL (≈ 6.44 mM)
[4]; ethanol:water 1:1, aqueous with cosolvent or surfactant or cyclodextrin
  solubility: ~6 mg/mL (≈ 12.9 mM)
[4]; ethanol:water 95:5, organic solvent or mixture
  solubility: ~8 mg/mL (≈ 17.2 mM)
[4]; ethyl acetate, organic solvent or mixture
  solubility: < 1 mg/mL
[4]; formic acid, organic solvent or mixture
  solubility: 97 to 194 mg/mL (≈ 208 to 417 mM)
[4]; methanol, organic solvent or mixture
  solubility: ~14 mg/mL (≈ 30.1 mM)
[4]; methanol:water 9:1, organic solvent or mixture
  solubility: ~15 mg/mL (≈ 32.2 mM)
[4]; organic solvent or mixture, 2-butanone, MEK
  solubility: < 1 mg/mL
[4]; organic solvent or mixture, N,N-dimethylformamide, DMF
  solubility: 49 to 65 mg/mL (≈ 105 to 140 mM)
[4]; organic solvent or mixture, N-methyl-2-pyrrolidone, NMP
  solubility: 39 to 49 mg/mL (≈ 83.8 to 105 mM)
[4]; organic solvent or mixture, dichloromethane, DCM
  solubility: 36 to 43 mg/mL (≈ 77.3 to 92.4 mM)
[4]; organic solvent or mixture, dimethyl sulfoxide, DMSO
  solubility: 39 to 49 mg/mL (≈ 83.8 to 105 mM)
[4]; organic solvent or mixture, ethanol:water 9:1 at 60° C.
  solubility: > 60 mg/mL
[4]; organic solvent or mixture, methanol:MEK 1:1 at reflux
  solubility: > 90 mg/mL
[4]; organic solvent or mixture, tetrahydrofuran, THF
  solubility: ~5 mg/mL (≈ 10.7 mM)
[4]; trifluoroethane, organic solvent or mixture
  solubility: 97 to 194 mg/mL (≈ 208 to 417 mM)
[5]; 5° C., methanol, mixture of Forms (I), VI, and VII, five days
  form recovered after suspension equilibration in methanol: pure Form I was recovered
[5]; room temperature, depending on water activity
  relative thermodynamic stability of Form I and Form II: Below an aw of about 0.59, Form I is more stable
[6]; 1-propanol, 25° C.
  Solubility (S, mg/mL): 4.0 mg/mL (≈ 8.59 mM)
[6]; ethyl acetate, 25° C.
  Solubility (S, mg/mL): 1.5 mg/mL (≈ 3.22 mM)
[6]; 1-propanol, 5° C.
  solubility: 3.4 mg/mL (≈ 7.3 mM)
[6]; 1-propanol, 60° C.
  solubility: 14.4 mg/mL (≈ 30.9 mM)
[6]; 1-propanol, r.t.
  solubility: 4.7 mg/mL (≈ 10.1 mM)
[6]; 2-propanol, 25° C.
  solubility: 1.3 mg/mL (≈ 2.79 mM)
[6]; MEK, 25° C.
  solubility: 3.7 mg/mL (≈ 7.95 mM)
[6]; THF, 25° C.
  solubility: 20.4 mg/mL (≈ 43.8 mM)
[6]; acetone at RFT
  solubility: 10 mg/mL (≈ 21.5 mM)
[6]; acetone, 25° C.
  solubility: 4.1 mg/mL (≈ 8.81 mM)
[6]; ethanol, 5° C.
  solubility: 3.6 mg/mL (≈ 7.73 mM)
[6]; ethanol, 25° C.
  solubility: 4.4 mg/mL (≈ 9.45 mM)
[6]; ethanol, 50° C.
  solubility: 10.2 mg/mL (≈ 21.9 mM)
[6]; ethanol-water 9:1, 25° C.
  solubility: 23.7 mg/mL (≈ 50.9 mM)
[6]; ethanol-water 96:4, 0° C.
  solubility: 6.7 mg/mL (≈ 14.4 mM)
[6]; ethanol-water 96:4, 25° C.
  solubility: 10 mg/mL (≈ 21.5 mM)
[6]; ethanol-water 96:4, 60° C.
  solubility: 24.7 mg/mL (≈ 53.1 mM)
[6]; methanol, 25° C.
  solubility: 19.9 mg/mL (≈ 42.7 mM)
[7]
  exposure after treatment with acid reducing agents: significant decreases in exposure
[8]
  solid residue after aqueous solubility test (PXRD): Form I was retained
